# Results: patent US8513226B2, “Simultaneous method for the preparation of a mixture of 3-acetoxy-17-acetamido-16-formyl-androst-5,17-diene and 3-acetoxy-2'-chloro-5-androsteno[17,16-b]pyridine” (Council of Scientific and Industrial Research, priority 2008, dated 2013)
# “Also recorded” adds a separate entry of the source. Where two headings read alike, the source gives them in different places.
# Tests used:
# [1] = system: rabbit gastric parietal cells; experiment: Basal acid secretion (aminopyrine uptake) in gastric parietal cells; assay type: cell-based; details: Oryctolagus cuniculus
# Protocol: (§1) Briefly, the technique involves high-pressure perfusion of the stomach in live animal with oxygenated PBS, stripping and mincing the mucosa followed by 2-step proteolytic digestion at 37° C., first with a mixture of protease (0.1 mg/ml) and pronase (1 mg/ml) for 15 min and then the pellet obtained therefrom with collagenase (1 mg/ml) for 30 min. The washed cell pellet containing majority of the gastric cells was layered on top of a two-step gradient of Nycodenz (density 1.05 and 1.075 g/ml) and centrifuged at 150×g for 10 min. Parietal cells enriching in between density of 1.05 and 1.075 interface were collected, washed 3 times with respiratory medium and used for the study. The PC preparations were nearly 90% pure and viable.
# (§2) The [^14C]-aminopyrine (115 μCi/mM) was added to the suspension at a concentration of 0.1 mCi/ml, and incubation was continued for another 10 min. One-milliliter aliquots of such PC suspension (˜5×10^6 cells) were further incubated in the presence and the absence of histamine (0.1 mM) for 20 min at 37° C. with slow shaking and oxygen top gassing. At the end of the incubation, the PC suspensions were centrifuged, supernatant carefully aspired off and the pellets solubilized in scintillation fluid containing Triton X-100. The resulting solution was counted in a liquid scintillation counter. The aminopyrine accumulation was determined as the ratio of intra- to extracellular aminopyrine according to Mazzeo et al. (A R Mazzeo, J Nandi & R A Levine, Am. J. Physiol. 1988, 254, G57).
# pylorus-ligated rats = experiment: Gastric secretion in pylorus-ligated rats; assay type: in vivo, rat
# Protocol: The pylorus of each rat was ligated under anesthesia according to the method of Shay et. al. (H Shay, S A Komarov, S S Fels, D Merange, M Grunstein & H Siplet, Gastroenterol. 1945, 4, 43). Each of the animals were then allowed to stand abstained from food and water in a cage. After 4 h, the animals were sacrificed and the stomachs were removed. The gastric contents were collected and centrifuged, and the secretory volume, pH and acid content of the supernatants were measured. The acid content was measured by titrating to pH 7.0 with 0.01 N NaOH using an autotitrator (Metrohm). The total acid content of the drug treated groups was compared to that of control groups, presented graphically in FIG. 5 and thereby, the reduction percentage of acid content was calculated. Compound 4 was suspended in 0.4% HPMC and administered orally at graded dose (10, 20, 50 and 100 mg/kg dose) in different groups 45 min before the ligation. In the control group, the vehicle (0.4% HPMC) was administered.
# [2] = system: cold restraint stress ulcer in rats; experiment: Cold restraint stress induced ulceration; assay type: in vivo, rat; details: for protection of ulceration induced by cold restraint stress: 50 mg/kg body weight
# Protocol: Adult rats of either sex, weighing about 200 g were fasted for 24 h with free access to water. Compound 4 (in 0.4% hydroxypropylmethylcellulose, HPMC) were administered 45 min before immobilizing the animals. The rats were immobilized in the restraint cage at 4 °C for 4 h and were sacrificed immediately after the restraint period according to the method of Senay and Levine (E C Senay & R J Levine, Proc. Soc. Exp. Biol. Med. 1967, 124, 1221). The abdomen was cut opened, stomach taken out and incised along the greater curvature to observe the gastric lesions. The ulceration was rated and the ulcer index (UI) scored as described in Wagner et al. (K Wagner, J Nandi, R L King & R A Levine, Dig. Dis. Sci. 1995, 40, 134), the effect of compound 4 being expressed graphically as a function of ulcer index and the result was further expressed as the percent protection of the ulcer formation in comparison to the untreated control group (FIG. 4).
# Swiss albino mice = experiment: Single-dose acute toxicity evaluation; assay type: in vivo; details: 1 g/kg body weight orally, 15 days observation
# Source text: The Compound 4 was checked for mortality of the Swiss albino mice. Five animals of Swiss albino mice strain were used for this purpose. The dosage up to 1 g/kg body weight was given orally per mice and the animals kept up to 15 days under observation. It was observed that the mice were not affected at the dose level of 1 g/kg body weight of Compound 4.
# [3] = system: indomethacin-induced ulcer in rat; experiment: Indomethacin-induced ulcer in rat; assay type: in vivo; details: for protection of indomethacin induced ulcer formation: p.o. 45 min before indomethacin 15 mg/kg p.o.
# Protocol: The animals were kept fasting for 24 h before initiating the experiment, drinking water being available ad libitum. The animals were allotted to three groups, each group comprising of six rats. […] Six hours following the administration of indomethacin, the animals were killed, stomachs removed and opened along the greater curvature.
# H^+,K^+-ATPase = H^+,K^+-ATPase (Sus scrofa, UniProt P19156); experiment: H+,K+-ATPase (gastric proton pump) inhibition in pig gastric membranes; assay type: biochemical; details: for IC50: read-out: calculated IC50, H^+,K^+-ATPase
# Protocol: Pig gastric membranes enriched in apical and tubulovesicular membranes were prepared as described in the literature (S Bandopadhyay, P K Das, M V Wright, J Nandi, D Bhattacharya & T K Ray, J. Biol. Chem. 1987, 262, 5664). The fundic mucosal regions of pig stomach were desquamated and scrapped to collect oxyntic cell-riched fractions. The homogenized tissue was centrifuged at 5000×g for 8 min, the supernatant was layered over 37% sucrose and centrifuged at 100,000×g for 4½ h. The major membrane band appeared in the interface was collected, diluted with homogenizing buffer and recentrifuged at 110,000×g for 90 min. The pellet containing H^+,K^+-ATPase rich apical and tubulovesicular membranes was suspended in appropriate buffer and stored at −80° C. for use as the source of enzyme.
# The H^+,K^+-ATPase activity was measured at 37° C. in a 1 ml reaction mixture containing 2 mM MgCl2, 2 mM ATP, 10 mM PIPES (pH 6.8), 20 mM KCl and 10-15 μg membrane protein. […] After incubation for 10 min, the reaction was terminated by addition of 1 ml ice-chilled TCA (14%).
# K^+-stimulated activity, referred to as H^+,K^+-ATPase, was calculated as the difference between the activity in presence of Mg^+2 plus K^+ and basal activity (Mg^+-ATPase) in presence of Mg^+2 alone. […] The liberated inorganic phosphate was quantitated according to a reported procedure (H Sanui, Anal. Biochem. 1974, 60, 489) and the effects of 4 and 5 were assessed. The effects are quantitated in terms of percent inhibition of H^+,K^+-ATPase activity, and compared with that of omeprazole.
# [4] = system: rabbit gastric parietal cells; experiment: Histamine-stimulated acid secretion (aminopyrine uptake) in gastric parietal cells; assay type: cell-based; details: histamine 0.1 mM
# Protocol: as §1, §2
# Sequence of H^+,K^+-ATPase (P19156 whole entry): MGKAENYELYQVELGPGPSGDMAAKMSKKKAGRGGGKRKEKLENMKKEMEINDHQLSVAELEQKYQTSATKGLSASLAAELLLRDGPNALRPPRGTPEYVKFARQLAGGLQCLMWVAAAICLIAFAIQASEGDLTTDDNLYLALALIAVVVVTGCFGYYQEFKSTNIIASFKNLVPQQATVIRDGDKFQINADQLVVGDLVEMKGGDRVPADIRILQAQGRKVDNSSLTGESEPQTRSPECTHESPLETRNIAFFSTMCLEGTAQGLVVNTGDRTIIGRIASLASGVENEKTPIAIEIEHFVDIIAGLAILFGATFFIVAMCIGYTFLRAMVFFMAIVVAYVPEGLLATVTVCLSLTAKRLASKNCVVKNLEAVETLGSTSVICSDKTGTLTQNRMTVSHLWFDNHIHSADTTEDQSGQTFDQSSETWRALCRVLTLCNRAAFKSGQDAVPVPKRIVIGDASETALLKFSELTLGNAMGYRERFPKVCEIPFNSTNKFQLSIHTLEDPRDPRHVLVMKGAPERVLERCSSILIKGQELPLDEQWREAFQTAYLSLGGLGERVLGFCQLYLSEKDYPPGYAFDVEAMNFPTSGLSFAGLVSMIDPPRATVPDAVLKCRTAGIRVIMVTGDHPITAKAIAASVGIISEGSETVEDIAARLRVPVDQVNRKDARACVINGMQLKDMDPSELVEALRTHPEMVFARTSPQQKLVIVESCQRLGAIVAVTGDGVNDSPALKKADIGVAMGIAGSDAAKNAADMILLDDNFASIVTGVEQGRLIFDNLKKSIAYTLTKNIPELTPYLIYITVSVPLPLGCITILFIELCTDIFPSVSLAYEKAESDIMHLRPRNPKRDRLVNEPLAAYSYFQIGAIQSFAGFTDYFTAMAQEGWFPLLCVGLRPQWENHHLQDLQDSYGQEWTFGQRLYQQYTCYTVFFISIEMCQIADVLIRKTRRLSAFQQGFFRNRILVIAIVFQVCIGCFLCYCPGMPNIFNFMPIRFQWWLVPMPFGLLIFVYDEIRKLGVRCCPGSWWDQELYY
# Sequence of H^+,K^+-ATPase (P18434 whole entry partner): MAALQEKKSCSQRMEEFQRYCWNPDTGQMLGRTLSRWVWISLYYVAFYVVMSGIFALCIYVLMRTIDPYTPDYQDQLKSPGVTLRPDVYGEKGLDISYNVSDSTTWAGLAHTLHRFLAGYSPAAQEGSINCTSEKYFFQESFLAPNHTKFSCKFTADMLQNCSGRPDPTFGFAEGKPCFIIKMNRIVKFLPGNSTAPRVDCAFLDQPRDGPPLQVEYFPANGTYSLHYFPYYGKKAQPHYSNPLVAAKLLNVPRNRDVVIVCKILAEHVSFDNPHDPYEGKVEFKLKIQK
compound,measurement,setting,value
"CN/C(=N/CCSCc1nc[nH]c1C)NC#N [Cimetidine, reference compound]",inhibition at 200 µM,[1]; 200 μM,~10%
same,inhibition of acid output,pylorus-ligated rats; 50 mg/kg,~80%
same,protection of ulceration induced by cold restraint stress,[2],86%
"CC(=O)NC1=C(C=O)CC2C3CC=C4CC(OC(C)=O)CCC4(C)C3CCC12C (stereo not shown) [Compound 4, 3-acetoxy-17-acetamido-16-formyl-androst-5,17-diene]","mortality and behavioral abnormality, single-dose acute toxicity",Swiss albino mice,No mortality and behavioral abnormality; also recorded: did not show acute toxicity
same,inhibition at 300 µM,[1]; 300 μM (highest concentration),~10%
same,inhibition of acid output,pylorus-ligated rats; 50 mg/kg,~33%
same,inhibition of acid output,"pylorus-ligated rats; 50-100 mg/kg, oral",~30%
same,anti ulcer activity in indomethacin-induced ulcer model (in words),[3]; 10-50 mg/kg b.w.,potent anti ulcer activity
same,protection of indomethacin induced ulcer formation,[3],~75%
same,protection of ulceration induced by cold restraint stress,[2],54%
same,antiulcer activity in cold restraint stress ulcer model (in words),[2]; 50 mg/kg body wt.,potent antiulcer activity
same,"inhibition of H^+,K^+-ATPase (in words)","H^+,K^+-ATPase",dose dependent
same,"nature of inhibition of H^+,K^+-ATPase","H^+,K^+-ATPase",irreversible
same,Observation (nature of inhibition),"H^+,K^+-ATPase; 10 μM, different protein to inhibitor ratio",Irreversible
same,Observation (nature of inhibition),"H^+,K^+-ATPase; 10 μM, function of preincubation time",Irreversible
same,inhibition at 10 µM,"H^+,K^+-ATPase; 10 μM, preincubation time 0 min, read-out: % Inhibition of H^+, K^+-ATPase",2%
same,inhibition at 10 µM,"H^+,K^+-ATPase; 10 μM, preincubation time 30 min, read-out: % Inhibition of H^+, K^+-ATPase",56%
same,inhibition at 10 µM,"H^+,K^+-ATPase; 10 μM, protein concentration 5 μg/assay, read-out: % Inhibition of H^+, K^+-ATPase",75%
same,inhibition at 10 µM,"H^+,K^+-ATPase; 10 μM, protein concentration 20 μg/assay, read-out: % Inhibition of H^+, K^+-ATPase",57%
same,inhibition at 1 µM,"H^+,K^+-ATPase; concentration 1 μM",7%
same,inhibition at 5 µM,"H^+,K^+-ATPase; concentration 5 μM",20%
same,inhibition at 10 µM,"H^+,K^+-ATPase; concentration 10 μM, read-out: % Inhibition H^+, K^+-ATPase",47%
same,inhibition at 100 µM,"H^+,K^+-ATPase; concentration 100 μM",75%
same,IC50,"H^+,K^+-ATPase",18 µM
same,IC50,"[4]; Oryctolagus cuniculus, read-out: IC50, inhibition of histamine-stimulated acid secretion",~130 µM
same,activity compared with cimetidine in inhibiting histamine-stimulated secretion,[4],IC50 value comparable to cimetidine; also recorded: almost equiactive as compared with cimetidine
"CC(=O)O[C@H]1CC[C@@]2(C)C(=CC[C@@H]3[C@@H]2CC[C@]2(C)c4nc(Cl)ccc4C[C@@H]32)C1 [Compound 5, 3-acetoxy-2′-chloro-5-androsteno[17,16-b]pyridine]","inhibition of H^+,K^+-ATPase (in words)","H^+,K^+-ATPase",nominal
same,"% Inhibition H^+, K^+-ATPase","H^+,K^+-ATPase; concentration 1 μM",2%
same,"% Inhibition H^+, K^+-ATPase","H^+,K^+-ATPase; concentration 10 μM",37%
same,"% Inhibition H^+, K^+-ATPase","H^+,K^+-ATPase; concentration 100 μM",57%
"COc1ccc2[nH]c([S+]([O-])Cc3ncc(C)c(OC)c3C)nc2c1 (stereo not shown) [Omeprazole, 5-methoxy-2-[(4-methoxy-3,5-dimethyl-2-pyridinyl)-methyl]sulfinyl-1H-benzimidazole, reference compound]",inhibition at 20 µM,[1]; 20 μM,80 to 90%
same,protection of indomethacin induced ulcer formation,[3],~90%
same,inhibition at 3 µM,"H^+,K^+-ATPase; concentration 3 μM",20%
same,inhibition at 30 µM,"H^+,K^+-ATPase; concentration 30 μM",80%
same,"inhibition of H^+,K^+-ATPase","H^+,K^+-ATPase; concentration range 3 μM and 30 μM",20-80%
same,"potency relative to 4 (H^+,K^+-ATPase)","H^+,K^+-ATPase; from IC50 values",about three times more potent than 4
same,IC50,"H^+,K^+-ATPase",~6 µM
